For the molecule `*Oc1ccc(C(C)(C)c2ccc(Oc3ccc4c(c3)C(=O)N(N3C(=O)c5ccc(*)cc5C3=O)C4=O)cc2)cc1` (repeat unit), the glass transition temperature was found to be 216.70 °C.
The value for `*Oc1ccc(C(C)(C)c2ccc(Oc3cccc(*)n3)cc2)cc1` (repeat unit) was 107.00 °C.
As to `*Oc1ccc(S(=O)(=O)c2ccc(*)cc2)c2ccccc12` (repeat unit), the glass transition temperature was 238.00 °C.
The value for `*Oc1ccc(S(=O)(=O)c2ccc(Oc3ccc(C4CCCC(C(C)c5ccc(*)cc5)C4)cc3)cc2)cc1` (repeat unit) was 230.00 °C; that for `*Oc1ccc(S(=O)(=O)c2ccc(Oc3ccc(P(=O)(c4ccccc4)c4ccc(*)cc4)cc3)cc2)cc1` (repeat unit) was 231.00 °C; that for `*Oc1ccc(S(=O)(=O)c2ccc(Oc3ccc(P(C)(=O)c4ccc(*)cc4)cc3)cc2)cc1` (repeat unit) was 233.00 °C.
The value for `*Oc1ccc(S(=O)(=O)c2ccc3ccc(S(=O)(=O)c4ccc(*)cc4)cc3c2)cc1` (repeat unit) was 250.00 °C; that for `*c1ccc(-c2ccc(-n3c(-c4ccc(Oc5ccc(C(=O)c6cccc(C(=O)c7ccc(Oc8ccc(-c9nc%10ccccc%10n9*)cc8)cc7)c6)cc5)cc4)nc4ccccc43)cc2)cc1` (repeat unit) was 244.00 °C.
With `*c1ccc(Cc2ccc(N3C(=O)c4ccc(Oc5ccc(C(C)(C)c6ccc(Oc7ccc8c(c7)C(=O)N(*)C8=O)cc6)cc5)cc4C3=O)cc2)cc1` (repeat unit), the glass transition temperature is 217.00 °C.
On to `*c1ccc(N(c2ccc(C#N)cc2)c2ccc(N3C(=O)c4ccc(Oc5ccc(C(C)(C)c6ccc(C(C)(C)c7ccc(Oc8ccc9c(c8)C(=O)N(*)C9=O)cc7)cc6)cc5)cc4C3=O)cc2)cc1` (repeat unit), for which the glass transition temperature was found to be 224.00 °C.
The same measure for `*c1ccc(N2C(=O)c3ccc(Oc4ccc(C(C)(C)c5ccc(Oc6ccc7c(c6)C(=O)N(c6ccc8[nH]c(*)nc8c6)C7=O)cc5)cc4)cc3C2=O)cc1` (repeat unit): 324.00 °C.
The same measure for `*c1ccc(O)c(N2C(=O)c3ccc(Oc4ccc(C(C)(C)c5ccc(Oc6ccc7c(c6)C(=O)N(*)C7=O)cc5)cc4)cc3C2=O)c1` (repeat unit): 246.00 °C; for `*c1ccc(Oc2ccc(C(=O)c3cccc(C(=O)c4ccc(Oc5ccc(-c6nc(-c7cccc(-c8nc(*)c(-c9ccccc9)[nH]8)c7)[nH]c6-c6ccccc6)cc5)cc4)c3)cc2)cc1` (repeat unit): 256.50 °C.
The value for `*c1ccc(Oc2ccc(C(=O)c3cccc(C(=O)c4ccc(Oc5ccc(-c6nc(-c7ccccn7)nnc6*)cc5)cc4)c3)cc2)cc1` (repeat unit) was 202.00 °C.
In the case of `*c1ccc(Oc2ccc(N3C(=O)c4ccc(Oc5ccc(C(C)(C)c6ccc(Oc7ccc8c(c7)C(=O)N(*)C8=O)cc6)cc5)cc4C3=O)cc2)cc1` (repeat unit), the glass transition temperature came out at 215.00 °C.
The same measure for `*c1ccc(Oc2ccc(S(=O)(=O)c3ccc(Oc4ccc(C5(*)OC(=O)c6ccccc65)cc4)cc3)cc2)cc1` (repeat unit): 247.00 °C; for `*c1ccc(Oc2ccc(S(=O)(=O)c3ccc(Oc4ccc(N5C(=O)c6ccc(Oc7ccc(C(C)(C)c8ccc(Oc9ccc%10c(c9)C(=O)N(*)C%10=O)cc8)cc7)cc6C5=O)cc4)cc3)cc2)cc1` (repeat unit): 200.00 °C.
`*c1ccc(Oc2cccc(-c3cc(-c4ccccc4)cc(-c4cccc(Oc5ccc(-n6c(=O)c7cc8c(=O)n(*)c(=O)c8cc7c6=O)cc5)c4)n3)c2)cc1` (repeat unit) yielded a glass transition temperature of 264.00 °C.
The molecule `*c1ccc(Oc2cccc(Oc3ccc(-n4c(=O)c5cc6c(=O)n(*)c(=O)c6cc5c4=O)cc3)c2)cc1` (repeat unit) gave a glass transition temperature of 326.00 °C.
The value for `*c1cccc(-n2nc(-c3ccccc3)c3cc(Oc4ccc(C(C)(C)c5ccc(Oc6ccc7c(-c8ccccc8)nn(*)c(=O)c7c6)cc5)cc4)ccc3c2=O)c1C#N` (repeat unit) was 200.00 °C.

Source of the values: the PolyMetriX glass transition set.
